Reference: PMC7824769, “Identification of Small Molecules Blocking the Pseudomonas aeruginosa Type III Secretion System Protein PcrV” (Biomolecules, 2021)
“And” between values parts separate entries of the source, which are not always exact repeats. Identical values can stand only once.

How the values were obtained:
[1] = test system: J774 cells infected with P. aeruginosa strain PAK; assay: cells; format: cell-based, Pseudomonas aeruginosa; conditions: Pseudomonas aeruginosa, uninfected control = 100%, infected control = 0%; for viability at 25 µM: J774, compound 25 µM, read-out: Viability Assay (% of Uninfected Control) 25 µM; for viability at 50 µM: J774, compound 50 µM, read-out: Viability Assay (% of Uninfected Control) 50 µM; for viability at 100 µM: J774, compound 100 µM, read-out: Viability Assay (% of Uninfected Control) 100 µM; for viability at 200 µM: J774, compound 200 µM
Description: (§1) The cell viability assay was performed essentially as described before. J774 cells were seeded in 96-well micro-titer plates (Nunc), 100 µL/well, to a final number of 50,000 cells/well in Dulbecco’s modified Eagle’s medium (DMEM) with glutamax (Merck) supplemented with 10% fetal calf serum (FCS) and 3 µg/mL gentamicin and incubated for 16-18 h. Overnight cultures of the P. aeruginosa strains PAK and PAKpcrV [10] were grown in Luria Broth (LB) on a rotary shaker at 220 rpm at 37 °C. Prior to infection, the bacteria were diluted 1:10 in DMEM + glutamax and incubated for 1 h at 37 °C (shaking). The J774 cells were washed once with PBS, then 30 µL of DMEM with glutamax and 10% FCS supplemented with the potential binders at concentrations of 50, 100, 200, and 400 µM were added to the wells in triplicates. The infection was initiated by adding 30 µL of the diluted bacterial solutions (where the OD600 had been diluted to 0.0008) to each well to initiate infection. This infection results in a final bacterial concentration of OD600 = 0.0004 and a multiplicities of infection (MOI) of approximately 8, with final concentrations of the compounds at 25, 50, 100, and 200 µM in 60 µL of DMEM + glutamax and 5% FCS. In the primary screening, the compounds were run at one concentration (100 µM) in duplicates. As an infection control, the wild-type strain PAK with 1% DMSO was added, and as a positive control, PAKpcrV with 1% DMSO was added into four wells each. After 3 h and 30 min, 10 µL of UptiBlue Viable Cell Counting Kit (Interchime, France) was added to all wells. The infection was followed under the light microscope and the fluorescence (excitation 535 nm and emission 595 nm) was measured at 4, 5, and 6 h in a microplate reader (Synergy™ H4, Biotek). The results were calculated as percentage of living cells compared to uninfected control, where the uninfected control was set to 100% living cells and the infected control was set to 0% living cells. As a control, compounds were added to uninfected cells in a parallel experiment and viability was calculated as above to screen for cell toxicity. A compound was considered toxic if the viability was <80% of the uninfected control after 6 h of incubation and if a visual change of cell morphology was observed by microscopy. Z’ was calculated for each plate to ensure good quality throughout the screening. Only results from plates with a Z’ > 0.4 were counted. Standard deviation was calculated with Gaussian approximation when appropriate and shown as error bars in Figure 3C and Figure 4A.
The T3SS is important for P. aeruginosa infection of eukaryotic cells, and a T3SS activator mutant or a mutant lacking the T3SS tip protein PcrV are not able to infect eukaryotic cells. The macrophage cell line, J774, was infected with the wild-type P. aeruginosa strain PAK, and the potential PcrV binders were added to the wells at a final concentration of 100 µM to screen for inhibition of infection. The T3SS-mediated cytotoxic effect on the eukaryotic cells was measured by using a viability staining method (Uptiblue, Interchim), and the results were measured after 4, 5, and 6 h of infection. The pcrV-mutant (PAKpcrV), which is not able to infect macrophages due to deletion of the PcrV protein, was used as a control.

PcrV = PcrV (Pseudomonas aeruginosa, UniProt G3XD49); assay: SPR dose-response binding to immobilized PcrV (equilibrium analysis); conditions: for Binding to PcrV in SPR (in words): dose-response SPR
Description: The SPR screening was performed using the ProteOn^TM XPR36 Protein Interaction Array System (Bio-Rad Laboratories Inc., Hercules, CA, USA) with ProteOn GLH sensor chip (Bio-Rad Laboratories Inc., Hercules, CA, USA), and the results were analyzed with the ProteOn Manager software^TM (Bio-Rad Laboratories Inc., Hercules, CA, USA), Excel 2016 (Microsoft Office), and GraphPad Prism 7.04. All SPR experiments were performed at 25 °C. The multichannel module of the ProteOn system was in the vertical position during protein immobilization. The proteins were attached to the surface of a GLH sensor chip via amine coupling chemistry. A buffer scouting was performed to elucidate the optimal binding conditions of PcrV to the GLH sensor chip. First, channels 1–4 on the chip surface were activated using a 1:1 mixture of 40 mM 1-ethyl-3-(3-dimethylaminopropyl)carbodiimide hydrochloride (EDAC) (Bio-Rad Laboratories Inc., Hercules, CA, USA) and 10 mM N-hydroxysulfosuccinimide (sulfo-NHS, Bio-Rad Laboratories Inc., Hercules, CA, USA) for 300 s at 30 µL/min. Next, the proteins PcrV (33,398.6 Da, 6.37 mg/mL) was diluted in 10 mM NaOAc (pH 4, 4.5, and 5) to 0.05 mg/mL. PcrV was immobilized in channel 1–3 for 540 s at 30 µL/min. Channel 4 was flushed with 10 mM NaOAc (pH 5) for 540 s at 30 µL/min. As deactivating agent, a 1:1 mixture of 1 M ethanolamine and milli-Q filtered water was used. The deactivating solution was injected over all four channels for 300 s at 30 µL/min. Phosphate buffered saline with Tween (PBST; 10 mM phosphate buffer pH 7.4, 140 mM NaCl, 2.7 mM KCl, and 0.05% Tween 20) was used as the running buffer. The final amount of immobilized protein was measured in resonance units (RU) relative to the signal of the baseline prior activation. […] Immobilization of PcrV diluted in sodium acetate of pH 4.5 in one channel and of pH 5 in one channel were used in the beginning of the screening procedure (for plate 1–26). Since no difference was found between the two pH values, the PcrV protein was diluted in sodium acetate at pH 5 only (in two channels) from plate 27 and the rest of the screen. The immobilization procedure for the screening was performed as described above with the addition that the control protein carbonic anhydrase isoenzyme II from bovine erythrocytes (CAII, Sigma-Aldrich, article number 2522) was immobilized in one channel that was activated and deactivated as described above. CAII (1 mg/mL in PBS) was deactivated when diluted in 10 mM sodium acetate (pH 4) to 0.05 mg/mL. Immobilization level of the deactivated CAII was 18,000 RU. Deactivated CAII was used as a control protein according to the recommendations by the ProteOn manufacturer (Bio-Rad Laboratories Inc., Hercules, CA, USA). As running buffer, we employed PBS (pH 7.4, 0.05% Tween 20).
First, the PcrV protein was immobilized in two channels as described above while keeping a blank channel which was activated and deactivated as described above. The multichannel module of the ProteOn system was in horizontal position during the small molecule interaction studies. They were serially diluted to (400,) 200, 100, 50, 25, 12.5, 6.25, and (3.125); or 100, 50, 25, and 12.5 µM; or 100, 66.7, 44.4, 29.6, 19.7, and 13.2 µM in PBST (0.05% Tween 20) with a total concentration of 5% DMSO in 96-well plates. The running buffer was PBST (0.05% Tween 20) containing 5% DMSO. The analytes were injected at a flowrate of 100 µL/min, contact time was 60 s, and dissociation time was 60–120 s. Solvent correction was performed continuously during the experiments to account for bulk response of DMSO. The data was then baseline-aligned, processed by channel referencing with the blank channel, and solvent-corrected. The equilibrium dissociation constant (KD) values were determined from equilibrium analysis in the ProteOn Manager software^TM. Solubility problems frequently hampered KD determination since the small molecules could not always be dissolved in concentrations high enough to reach a plateau. […]

uninfected J774 cells = assay: Cell toxicity control: compounds added to uninfected J774 cells; format: cell-based; conditions: 6 h incubation; for Toxicity towards eukaryotic cells, 200 µM: compound 200 µM; for Toxicity towards eukaryotic cells, 25 µM: compound 25 µM; for Toxicity towards eukaryotic cells, 50 µM: compound 50 µM; for Toxicity towards eukaryotic cells, 100 µM: compound 100 µM
Description: as §1

[2] = as above; format: cell-based; conditions: mouse, uninfected J774 macrophage cells; read-out: Eukaryotic cell toxicity (viability compared to DMSO control)
Description: as §1

[3] = KD ± standard error of KD (Table S1), single experiment, standard error from ProteOn Manager software
[4] = SPR KD, equilibrium analysis, mean ± SD of three or more independent experiments, individual values where n < 3, 25 °C, PBST 5% DMSO

PcrV, sequence (G3XD49 entry or part of it): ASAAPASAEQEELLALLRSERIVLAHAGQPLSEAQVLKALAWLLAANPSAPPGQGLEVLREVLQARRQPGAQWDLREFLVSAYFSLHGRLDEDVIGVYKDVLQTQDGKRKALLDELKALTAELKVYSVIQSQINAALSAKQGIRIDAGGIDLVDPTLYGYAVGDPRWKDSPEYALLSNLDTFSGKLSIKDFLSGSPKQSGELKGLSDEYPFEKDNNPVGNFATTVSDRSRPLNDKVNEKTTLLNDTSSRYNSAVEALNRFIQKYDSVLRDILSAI

SMILES | viability at 25 µM [1] [%] | viability at 50 µM [1] [%] | viability at 100 µM [1] [%] | viability at 200 µM [1] [%] | Kd (PcrV; [3]) [µM] | Kd (PcrV; [4]) | Toxicity towards eukaryotic cells, 200 µM (uninfected J774 cells) | Binding to PcrV in SPR (in words) (PcrV) | Toxicity towards eukaryotic cells, 25 µM (uninfected J774 cells) | Toxicity towards eukaryotic cells, 50 µM (uninfected J774 cells) | Toxicity towards eukaryotic cells, 100 µM (uninfected J774 cells) | viability at 6 h [2] [%]
O=C(O)CCCOc1ccc(Cl)cc1Cl [Compound 1] | 14 | 12 | 21 | 16 | 124 ± 53 | < 127 µM and 95 µM | b (The compound is toxic^e towards eukaryotic cells, which might affect the results negatively) | – | – | – | – | –
O=C(O)CCCOc1cc(Cl)ccc1Oc1ccc(Cl)cc1Cl [Compound 17] | 10 | 3 | 7 | -2 | – | 536 µM | b (The compound is toxic^e towards eukaryotic cells, which might affect the results negatively) | – | – | – | – | –
Cc1c(Br)ccc(OCCCC(N)=O)c1C [Compound 18] | – | – | – | – | 32.9 ± 5 | 42 ± 12 µM | Toxic ^e (<80% viability compared to the DMSO control) | improved or similar binding affinity | Toxic ^e (<80% viability compared to the DMSO control) | Toxic ^e (<80% viability compared to the DMSO control) | Toxic ^e (<80% viability compared to the DMSO control) | < 80
CNC(=O)CCCOc1ccc(Br)c(C)c1C [Compound 19] | – | – | – | – | 177 ± 31.6 | 121 ± 45 µM | Toxic ^e (<80% viability compared to the DMSO control) | improved or similar binding affinity | Toxic ^e (<80% viability compared to the DMSO control) | Toxic ^e (<80% viability compared to the DMSO control) | Toxic ^e (<80% viability compared to the DMSO control) | < 80
Cc1c(Br)ccc(OCCCC(=O)N2CCC(C(=O)O)CC2)c1C [Compound 23] | 17 | 18 | 20 | 9 | 94.1 ± 31 | 94 µM and 103 µM | b (The compound is toxic^e towards eukaryotic cells, which might affect the results negatively) | – | – | – | – | –
Cc1c(Br)ccc(OCCCC(=O)NS(=O)(=O)c2ccccc2)c1C [Compound 27] | 13 | 15 | 25 | -6 | 116 ± 18 | 118 ± 62 µM | b (The compound is toxic^e towards eukaryotic cells, which might affect the results negatively) | – | – | – | – | –
Cc1c(Br)ccc(OCCCCO)c1C [Compound 28] | – | – | – | – | – | 127 µM and 351 µM | Toxic ^e (<80% viability compared to the DMSO control) | – | Toxic ^e (<80% viability compared to the DMSO control) | Toxic ^e (<80% viability compared to the DMSO control) | Toxic ^e (<80% viability compared to the DMSO control) | –
Cc1c(Br)ccc(OCCCc2ccccc2C(=O)O)c1C [Compound 30] | 16 | 25 | 21 | -16 | 149 ± 27 | 113 ± 31 µM | b (The compound is toxic^e towards eukaryotic cells, which might affect the results negatively) | – | – | – | – | –
